{"source": "patent US20090087443A1", "about": "“Pharmacological Adjunctive Treatment Associated with Glaucoma Filtration Surgery” (priority 2007, published 2009)", "molecules": {"B1": {"name": "Prolactin: antagonist to at least one TGF-β isoform (protein, UniProt P01236 29-227, looked up)", "Prolactin": "LPICPGGAARCQVTLRDLFDRAVVLSHYIHNLSSEMFSEFDKRYTHGRGFITKAINSCHTSSLATPEDKEQAQQMNQKDFLSLIVSILRSWNEPLYHLVTEVRGMQEAPEAILSKAVEIEEQTKRLLEGMELIVSQVHPETKENEIYPVWSGLPSLQMADEESRLSAYYNLLHCLRRDSHKIDNYLKLLKCRIIHNNNC"}}, "key": {"[1]": {"system": "Human Tenon's fibroblasts", "test": "TGF-β stimulated cellular levels of collagen type I, α-smooth muscle actin and tissue transglutaminase (Western blot)", "assay_type": "cell-based", "conditions": "TGF-β 5 ng/ml, 0.1, 1, 3, 5 or 10 μM, day 5, ratio to GAPDH", "experimental": "Methods: Human Tenon's fibroblasts were seeded in 60 mm plates in 10% FBS MEM (fetal bovine serum/Eagle's minimum essential medium) and grown until approximately 90% confluency. After the cells were starved in 0.5% FBS MEM for approximately 72 hours, the media was changed to fresh 0.5% FBS MEM. […] Cells were harvested 1, 3 or 5 days later. They were washed twice with cold 1× PBS and scraped into 1×SDS sample buffer. Lysates were assayed for protein content using the DC protein assay kit from Bio-Rad. Equal amounts of protein from each sample were electrophoresed on a 7.5% Tris-glycine SDS gel. Proteins were transferred to a PVDF membrane, blocked and probed with one or more of the following antibodies: mouse monoclonal anti-α-smooth muscle actin Clone 1A4: (Sigma Aldrich, #A2547), mouse monoclonal anti-human GAPDH (6C5) (Santa Cruz Biotechnology, Inc., #sc-32233), goat anti-human collagen α1Type I (L-19) (Santa Cruz Biotechnology, Inc., #sc-8783), or mouse monoclonal anti-transglutaminase II Ab-3 (ClonesCUB7402+TG100) (NeoMarkers, # MS-300-P). Density of each band was measured densitometrically and the ratio to GADPH calculated."}, "[2]": {"system": "IL-1β-induced cytokine production in human corneal epithelial cells (HCECs)", "test": "IL-1β-stimulated cytokine production in primary human corneal epithelial cells (30-cytokine Luminex kit)", "protocol": "Primary HCECs were seeded in 24-well plates. […] Each treatment was performed in triplicate. Media were collected and used for determination of cytokine content using a 30-cytokine Luminex kit. Cell viability was determined by alamarBlue assay (LP06013).\nMedian fluorescence intensity (MFI) was used to obtain the concentration of each cytokines in pg/ml based on the standard curve of each cytokine assayed by Luminex. The linear range of the standard curve for each cytokine was used for determination of cytokine concentration. Duplicate values for each sample were averaged. Data were expressed as mean±SD. Statistical analysis was performed using one-way ANOVA-Dunnett's test, and P<0.05 was considered statistically significant."}, "[3]": {"system": "New Zealand White rabbits", "test": "Slit-lamp ophthalmic observations (McDonald Shadduck scoring) in the rabbit topical IOP study", "assay_type": "in vivo", "design": "key to Conjunctival Congestion Score, treated right eye: 1 = A flushed, reddish color predominantly confined to the palpebral conjunctiva with some perilimbal injection but primarily confined to the lower and upper parts of the eye from the 4:00 to 7:00 and 11:00 to 1:00 positions; key to Cornea Score, treated right eye: 1 = Some loss of transparency. Only the epithelium and/or the anterior half of the stoma are involved. The underlying structures are clearly visible although some cloudiness may be readily apparent; key to Ophthalmic Observation (Slit-Lamp), treated right eye, individual animals: AN = Appeared normal", "conditions": "for Ophthalmic Observation (Slit-Lamp), treated right eye, individual animals: examination Days 5, 12, 22, 26, 33 as listed per animal (days without scored finding, until death)", "experimental": "Prior to placement on study, each animal underwent a pre-treatment ophthalmic examination (slit lamp and indirect ophthalmoscopy). Observations were scored according to the McDonald Shadduck system and recorded using a standardized data collection sheet.\nOphthalmic examinations (slit lamp) were performed prior to the first dosing on Days 5, 12, 22, 26, and 33. Ocular findings were scored according to the McDonald Shadduck system and recorded using a standardized data collection sheet."}, "[4]": {"system": "New Zealand White rabbits", "test": "Mortality/morbidity in the rabbit topical IOP study", "assay_type": "in vivo", "conditions": "for Mortality (number of animals found dead or euthanized prior to study completion/number of animals in group): right eye topical 4 × daily through Day 31, to Day 33"}, "[5]": {"system": "neovascularization and angiogenesis in the rat cornea", "conditions": "X. Xin et al., J. Biol. Chem. 274:9116-9121 (1999); cited from earlier work"}, "fibroblasts": {"system": "fibroblasts", "conditions": "cited from earlier work"}, "[6]": {"conditions": "0.1% dexamethasone, 0.05 mg/dose 4 × daily (Group A)"}}, "note": "Where “and” joins values, the source holds several entries; their conditions need not be identical. Identical values can stand only once. Entries after “also recorded” stand apart in the source; their conditions may differ. Like-named read-outs stand apart in the source and are kept apart here.", "data": [{"molecule": "Cc1ccc2c(NCC(O)(CC(C)(C)c3cc(F)cc4c3OCC4)C(F)(F)F)cccc2n1", "note": "(stereo not shown)", "values": [{"measurement": "Effect on TGF-β-induced cellular level of collagen type I", "setting": "[1]", "result": "inhibitory effect that appeared dose-related; also recorded: inhibit"}, {"measurement": "Effect on TGF-β-induced cellular level of tissue transglutaminase", "setting": "[1]", "result": "inhibitory effect that appeared dose-related; also recorded: inhibit"}, {"measurement": "Effect on TGF-β-induced cellular level of α-smooth muscle actin", "setting": "[1]", "result": "inhibitory effect that appeared dose-related; also recorded: inhibit"}, {"measurement": "Potency relative to dexamethasone for inhibition of IL-1β-stimulated production of IL-6, IL-7, TGF-α, TNF-α, VGEF, and MCP-1", "setting": "[2]", "result": "comparable potency"}, {"measurement": "Potency relative to dexamethasone in inhibiting IL-1β-stimulated production of G-CSF", "setting": "[2]", "result": "more potent than dexamethasone"}, {"measurement": "Potency relative to dexamethasone in inhibiting IL-1β-stimulated production of GM-CSF, IL-8, and RANTES", "setting": "[2]", "result": "somewhat less potent than dexamethasone"}, {"measurement": "Effect on IL-1β-stimulated RANTES production", "setting": "[2]; 1 nM-10 μM, IL-1β 10 ng/ml, 18 h", "result": "no significant effect"}, {"measurement": "Conjunctival Congestion Score, treated right eye", "setting": "[3]; 1 mg/g suspension 4 × daily, animal No. 3040, Day 22", "result": 1}, {"measurement": "Ophthalmic Observation (Slit-Lamp), treated right eye, individual animals", "setting": "[3]; 1 mg/g suspension 4 × daily", "result": "AN"}, {"measurement": "Other slit-lamp finding in dosed right eye", "setting": "[3]; 1 mg/g suspension, Group D, No. 3043", "result": "subconjunctival hemorrhage"}, {"measurement": "Conjunctival Congestion Score, treated right eye", "setting": "[3]; 5 mg/g suspension 4 × daily, animal No. 3031, Day 22", "result": 1}, {"measurement": "Conjunctival Congestion Score, treated right eye", "setting": "[3]; 5 mg/g suspension 4 × daily, animal No. 3035, Days 22, 26", "result": 1}, {"measurement": "Conjunctival Congestion Score, treated right eye", "setting": "[3]; 5 mg/g suspension 4 × daily, animal No. 3064, Day 5", "result": 1}, {"measurement": "Conjunctival Congestion Score, treated right eye", "setting": "[3]; 5 mg/g suspension 4 × daily, animal No. 3074, Day 26", "result": 1}, {"measurement": "Ophthalmic Observation (Slit-Lamp), treated right eye, individual animals", "setting": "[3]; 5 mg/g suspension 4 × daily", "result": "AN"}, {"measurement": "Conjunctival Congestion Score, treated right eye", "setting": "[3]; 10 mg/g suspension 4 × daily, animal No. 3003, Day 12", "result": 1}, {"measurement": "Conjunctival Congestion Score, treated right eye", "setting": "[3]; 10 mg/g suspension 4 × daily, animal No. 3017, Days 5, 12", "result": 1}, {"measurement": "Conjunctival Congestion Score, treated right eye", "setting": "[3]; 10 mg/g suspension 4 × daily, animal No. 3042, Day 26", "result": 1}, {"measurement": "Surface area of cornea involvement Score, treated right eye", "setting": "[3]; 10 mg/g suspension 4 × daily, animal No. 3083, Day 5", "result": "1 (1 = 1-25% area of stromal cloudiness.)"}, {"measurement": "Cornea Score, treated right eye", "setting": "[3]; 10 mg/g suspension 4 × daily, animal No. 3083, Day 5, pinpoint corneal scar", "result": "1^(2)"}, {"measurement": "Ophthalmic Observation (Slit-Lamp), treated right eye, individual animals", "setting": "[3]; 10 mg/g suspension 4 × daily", "result": "AN"}, {"measurement": "Other slit-lamp finding in dosed right eye", "setting": "[3]; 10 mg/g suspension, Group B, No. 3083", "result": "pinpoint corneal scar"}, {"measurement": "Day of Death (day euthanized or found dead), individual rabbits", "setting": "[4]", "result": 29}, {"measurement": "Recorded Notes on mortality/morbidity, individual rabbits", "setting": "[4]; 1 mg/g suspension, 0.05 mg/dose 4 × daily (Group D)", "result": "Found dead."}, {"measurement": "Mortality (number of animals found dead or euthanized prior to study completion/number of animals in group)", "setting": "[4]; 1 mg/g suspension, 0.05 mg/dose", "result": "one of ten and 1/10^(6)"}, {"measurement": "Day of Death (day euthanized or found dead), individual rabbits", "setting": "[4]; 10 mg/g suspension, 0.5 mg/dose 4 × daily (Group B)", "result": 11}, {"measurement": "Mortality (number of animals found dead or euthanized prior to study completion/number of animals in group)", "setting": "[4]; 10 mg/g suspension, 0.5 mg/dose", "result": "one of ten and 1/10^(4)"}]}, {"molecule": "CCCCCC=CC=C1C(=O)C=C[C@@H]1CC=CCCCC(=O)O", "note": "[15-deoxy-Δ-12,14-prostaglandin J2]", "values": [{"measurement": "Effect on neovascularization and angiogenesis in the rat cornea", "setting": "[5]", "result": "inhibit"}]}, {"molecule": "C[C@@H]1C[C@H]2[C@@H]3CCC4=CC(=O)C=C[C@]4(C)[C@@]3(F)[C@@H](O)C[C@]2(C)[C@@]1(O)C(=O)CO", "note": "[dexamethasone, reference compound]", "values": [{"measurement": "Conjunctival Congestion Score, treated right eye", "setting": "[3]; 0.1% dexamethasone 4 × daily, animal No. 3016, Day 5", "result": 1}, {"measurement": "Conjunctival Congestion Score, treated right eye", "setting": "[3]; 0.1% dexamethasone 4 × daily, animal No. 3081, Day 22", "result": 1}, {"measurement": "Ophthalmic Observation (Slit-Lamp), treated right eye, individual animals", "setting": "[3]; 0.1% dexamethasone 4 × daily", "result": "AN"}, {"measurement": "Mortality (number of animals found dead or euthanized prior to study completion/number of animals in group)", "setting": "[4]; 0.1% dexamethasone (Maxidex), 0.05 mg/dose", "result": "Six of ten"}, {"measurement": "Mortality (number of animals found dead or euthanized prior to study completion/number of animals in group)", "setting": "[4]; 0.1% dexamethasone (Maxidex), 0.05 mg/dose, listed as Dexamethasone", "result": "6/10^(3)"}, {"measurement": "Day of Death (day euthanized or found dead), individual rabbits", "setting": "[4]; [6]", "result": "25 (2×) and 27 (2×) and 23 and 13"}, {"measurement": "Recorded Notes on mortality/morbidity, individual rabbits", "setting": "[4]; [6]", "result": "Euthanized due to severe profuse hemorrhagic diarrhea; also recorded: Found dead. No rigor mortis present"}, {"measurement": "Mortality rate", "setting": "[4]; dexamethasone 0.05 mg/dose 4 × daily up to 31 days", "result": 6, "unit": "deaths per 10 rabbits"}]}, {"molecule": "B1", "values": [{"measurement": "Effect on the chemotaxis of fibroblasts", "setting": "fibroblasts", "result": "inhibit"}]}]}
